# Where a SMILES comes first, the peptide text is derived from it. [ ]: non-standard residue; d: D form. The star is where a group is joined. ξ: configuration not given here. Benzoyl(3,5-F2) = O=C(c1cc(F)cc(F)c1)*; NMeIle(3ξ) = CCC(C)[C@H](NC)C(=O)O; NMeF = CN[C@@H](Cc1ccccc1)C(=O)O; NMeA = CN[C@@H](C)C(=O)O; Dab = NCC[C@H](N)C(=O)O; NHOH = ON*
# What was measured:
# Assay type in all cases: biochemical
# MMP-9 = MMP-9 (Homo sapiens, UniProt P14780); test: MMP-9 inhibition assay (fluorimetric, DQ gelatin substrate); details: recombinant MMP-9 (Merck-Millipore for examples 1 to 9 and comparative examples; Enzo for examples 10 to 16), DQ gelatin 50 μg/mL, 4 hours at room temperature, pH 7.6
# Method: (§1) All the experiments were done in 1× reaction buffer, which was obtained from a 10× reaction buffer solution. The content of the 10× reaction buffer was: 50 mL of 0.5 M Tris-HCl, 1.5 M NaCl, 50 mM CaCl2 and 2 mM sodium azide at pH 7.6. To obtain the 1× reaction buffer 4 mL of the 10× reaction buffer were diluted in 36 mL of H2O.
# Recombinant MMP-9 expressed was obtained from Merck-Millipore (catalog number PF140-5UG, used in examples 1 to 9 and comparative examples) and Enzo (catalog number-SE360-0010, used in examples 10 to 16). DQ gelatin from pig skin fluorescein conjugated (MMP-9 substrate) was obtained from Life Technologies (catalog number E12055).
# Preparation of the MMP-9 for the activity assay: MMP-9 was provided as a stock solution (0.1 mg/mL). The enzyme was diluted in 1× reaction buffer to a final concentration of 5 μg/mL.
# Preparation of the DQ gelatin (substrate) solution for the activity assay: the solid form of the substrate was dissolved in water in order to obtain a stock solution of 1 mg/mL.
# Procedure: The enzymatic assays were performed in 96-well microtiter plate, which allowed simultaneous monitoring of multiple reactions. For each reaction, 84.6 μL of 1× reaction buffer (pH 7.6), […] of MMP-9 (final concentration 85 ng/mL) and 2 μL of the corresponding new compound were added to each well. A stock solution of new compound was prepared in DMSO (100 mM), and dilutions were prepared from this stock solution with DMSO. Finally, to the mixture contained in each well 10 μL of the substrate were added (final concentration 50 μg/mL). The reaction was incubated for 4 hours at room temperature in an orbital shaker (100 rpm).
# The inhibitory activity of the new compound was measured fluorimetrically. The excitation and emission wavelengths were 483 and 525 nm, respectively.
# Inhibitory activity at several concentration points (ranging from 100 pM to 200 μM MMP) were measured for each compound. The inhibitory activity on MMP-2 and MMP-9 was calculated according to eq 1. For each new compound, the fluorescence in the presence (a) and in the absence (b) of the corresponding MMP was measured. The maximum fluorescence (0% inhibitory activity) was obtained from a sample of the corresponding MMP in the absence of inhibitory compounds. To estimate the inhibitory potency of the novel compounds, activities were plotted against the log concentration of the compound, adjusting to a sigmoid curve using GraphPad Prism software, and the IC50 value, defined as the concentration of compound required to inhibit 50% of the corresponding MMP activity, was determined from resulting curve.
# a corresponds to fluorescence intensity in the presence of substrate+test compound+MMP
# b corresponds to the fluorescence intensity in the presence of substrate+tested compound
# c corresponds to the fluorescence intensity in the presence of substrate+MMP
# d corresponds to the fluorescence intensity of the presence of substrate
# MMP-1 = MMP-1 (Homo sapiens (Human), UniProt P03956); test: MMP-1 inhibition assay (fluorogenic peptide substrate); details: recombinant MMP-1 5.52 nM, Mca-PLGL-Dpa-AR-NH2 10 μM, 4 hours at room temperature; tested at 1, 10, 100 and 200 μM
# Method: as §1
# Recombinant MMP-1 expressed in E. Coli was obtained from Enzo Life Sciences (catalog number BML-SE180). Mca-PLGL-Dpa-AR-NH2 (fluorogenic peptide substrate) was obtained from R&D Systems (catalog number ES001).
# Preparation of the MMP-1 for the activity assay: MMP-1 was provided as a stock solution (0.55 mg/mL). The enzyme was diluted in 1× reaction buffer to a final concentration of 276 nM.
# MMP-1 peptide substrate was provided as a stock solution in DMSO (6 mM). For the assay, the substrate was diluted 1× reaction buffer to a concentration of 100 μM.
# Procedure: The enzymatic assays were performed in 96-well microtiter plate, which allowed simultaneous monitoring of multiple reactions. For each reaction, 86 μL of 1× reaction buffer (pH 7.6), 2 μL of MMP-1 (final concentration 5.52 nM) and 2 μL of the corresponding new compound were added to each well. A stock solution of the new compound was prepared in DMSO (100 mM), and dilutions were prepared from this stock solution with DMSO. Finally, to the mixture contained in each well 10 μL of the substrate were added (final concentration 10 μM). The reaction was incubated for 4 hours at room temperature in an orbital shaker (100 rpm).
# (§2) The inhibitory activity of the new compound was measured fluorimetrically. The excitation and emission wavelengths were 320 and 405 nm, respectively.
# (§3) Inhibitory activity at several concentration points (1, 10, 100 and 200 μM) were measured for each compound. The inhibitory activity on MMP-1, MMP-3 and MMP-7 was calculated according to eq 1 and The IC50 value was calculated as explained above for MMP-2 and MMP-9.
# MMP-7 = MMP-7 (Homo sapiens (Human), UniProt P09237); test: MMP-7 inhibition assay (fluorogenic peptide substrate); details: recombinant MMP-7 8.3 nM, Mca-PLGL-Dpa-AR-NH2 10 μM, 4 hours at room temperature; tested at 1, 10, 100 and 200 μM
# Method: as §1
# Recombinant MMP-7 expressed in E. Coli was obtained from Merck-Millipore (catalog number 44270). Mca-PLGL-Dpa-AR-NH2 (fluorogenic peptide substrate) was obtained from R&D Systems (catalog number ES001).
# Preparation of the MMP-7 for the activity assay: MMP-7 was provided as a stock solution (2.1 mg/mL). The enzyme was diluted in water to a final concentration of 0.005 mg/mL.
# MMP-7 peptide substrate was provided as a solid (1 mg). A 4 mM stock solution of the substrate in DMSO was obtained by adding 214.7 μL of DMSO. After which, a 100 μM solution of substrate was prepared in 1× reaction buffer.
# Procedure: The enzymatic assays were performed in 96-well microtiter plate, which allowed simultaneous monitoring of multiple reactions. For each reaction, 84.6 μL of 1× reaction buffer (pH 7.6), 3.4 μL of MMP-7 (final concentration 8.3 nM) and 2 μL of the corresponding new compound were added to each well. A stock solution of new compound was prepared in DMSO (100 mM), and dilutions were prepared from this stock solution with DMSO. Finally, to the mixture contained in each well 10 μL of the substrate were added (final concentration 10 μM). The reaction was incubated for 4 hours at room temperature in an orbital shaker (90 rpm).
# as §2, §3
# Chain of MMP-7 (P09237 95-267): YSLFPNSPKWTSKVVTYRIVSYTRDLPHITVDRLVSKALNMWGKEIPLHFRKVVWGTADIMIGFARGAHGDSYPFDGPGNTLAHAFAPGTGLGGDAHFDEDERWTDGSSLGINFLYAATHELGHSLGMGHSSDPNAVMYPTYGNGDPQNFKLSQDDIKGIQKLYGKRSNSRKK
# Chain of MMP-1 (P03956 100-269): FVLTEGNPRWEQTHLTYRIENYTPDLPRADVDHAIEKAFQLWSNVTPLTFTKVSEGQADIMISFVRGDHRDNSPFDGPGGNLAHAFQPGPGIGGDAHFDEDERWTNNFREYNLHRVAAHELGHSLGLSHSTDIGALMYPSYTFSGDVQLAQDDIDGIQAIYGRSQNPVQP
# Chain of MMP-9 (P14780 107-707 limits assumed): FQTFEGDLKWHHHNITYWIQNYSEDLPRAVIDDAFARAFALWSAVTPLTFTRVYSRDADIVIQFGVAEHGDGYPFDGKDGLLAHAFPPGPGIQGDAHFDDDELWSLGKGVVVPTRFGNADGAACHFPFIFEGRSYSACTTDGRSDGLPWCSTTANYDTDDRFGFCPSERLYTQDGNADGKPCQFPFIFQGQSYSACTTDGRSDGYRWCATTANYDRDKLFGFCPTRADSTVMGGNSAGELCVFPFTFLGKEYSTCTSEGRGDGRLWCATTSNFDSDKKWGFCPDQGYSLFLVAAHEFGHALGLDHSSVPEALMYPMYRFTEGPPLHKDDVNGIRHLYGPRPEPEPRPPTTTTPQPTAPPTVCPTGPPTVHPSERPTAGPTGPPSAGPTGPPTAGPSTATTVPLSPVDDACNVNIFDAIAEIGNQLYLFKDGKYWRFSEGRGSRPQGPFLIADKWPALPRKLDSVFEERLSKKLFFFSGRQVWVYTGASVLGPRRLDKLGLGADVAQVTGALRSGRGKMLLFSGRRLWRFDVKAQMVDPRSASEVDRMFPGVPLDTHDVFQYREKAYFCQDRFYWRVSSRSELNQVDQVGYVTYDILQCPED
Compound,IC50 (MMP-9),IC50 (MMP-1),IC50 (MMP-7)
"CCCCCC(=O)N1CCC[C@H]1C(=O)N(C)[C@H](C(=O)N[C@@H](CCNC(=O)c1cc(F)cc(F)c1)C(=O)NO)C(C)CC (stereo partly drawn) [Example 3, (2S)—N-[(1S)-1-[[(1S)-3-[(3,5-difluorobenzoyl)amino]-1-(hydroxycarbamoyl)propyl]carbamoyl]-2-methyl-butyl]-1-hexanoyl-N-methyl-pyrrolidine-2-carboxamide]",0.395 µM,6.82 µM,6.61 µM
"CCC(C)[C@@H](C(=O)N[C@@H](CCNC(=O)c1cc(F)cc(F)c1)C(=O)NO)N(C)C(=O)[C@@H]1CCCN1C(=O)[C@H](Cc1ccccc1)N(C)C(C)=O (stereo partly drawn) [Example 11, (2 S)-1-[(2S)-2-[acetyl(methyl)amino]-3-phenyl-propanoyl]-N-[(1S)-1-[[(1S)-3-[(3,5-difluorobenzoyl)amino]-1-(hydroxycarbamoyl)propyl]carbamoyl]-2-methyl-butyl]-N-methyl-pyrrolidine-2-carboxamide] (Ac-[NMeF]P[NMeIle(3ξ)][Dab](Benzoyl(3,5-F2))-{NHOH})",0.071 µM,9.13 µM,20.1 µM
"CCCCCCCC(=O)N1CCC[C@H]1C(=O)N(C)[C@H](C(=O)N[C@@H](CCNC(=O)c1cc(F)cc(F)c1)C(=O)NO)C(C)CC (stereo partly drawn) [Example 6, (2S)—N-[(1S)-1-[[(1S)-3-[(3,5-difluorobenzoyl)amino]-1-(hydroxycarbamoyl)propyl]carbamoyl]-2-methyl-butyl]-N-methyl-1-octanoyl-pyrrolidine-2-carboxamide]",0.733 µM,25.6 µM,52.6 µM
"CCC(C)[C@@H](C(=O)N[C@@H](CCNC(=O)c1cc(F)cc(F)c1)C(=O)NO)N(C)C(=O)[C@@H]1CCCN1C(=O)[C@H](C)N(C)C(C)=O (stereo partly drawn) [Example 12, (2 S)-1-[(2S)-2-[acetyl(methyl)amino]propanoyl]-N-[(1S)-1-[[(1S)-3-[(3,5-difluorobenzoyl)amino]-1-(hydroxycarbamoyl)propyl]carbamoyl]-2-methyl-butyl]-N-methyl-pyrrolidine-2-carboxamide] (Ac-[NMeA]P[NMeIle(3ξ)][Dab](Benzoyl(3,5-F2))-{NHOH})",0.136 µM,14.9 µM,14.1 µM

# Second part, the compound after the results:
IC50 (MMP-9),IC50 (MMP-1),IC50 (MMP-7),Compound
0.713 µM,24.7 µM,7.71 µM,"CCCCCC(=O)N1CC(F)(F)C[C@H]1C(=O)N(C)[C@H](C(=O)N[C@@H](CCNC(=O)c1cc(F)cc(F)c1)C(=O)NO)C(C)CC (stereo partly drawn) [Example 7, (2S)—N-[(1S)-1-[[(1S)-3-[(3,5-difluorobenzoyl)amino]-1-(hydroxycarbamoyl)propyl]carbamoyl]-2-methyl-butyl]-4,4-difluoro-1-hexanoyl-N-methyl-pyrrolidine-2-carboxamide]"
0.235 µM,4.73 µM,4.42 µM,"CCCC(=O)N1CCC[C@H]1C(=O)N(C)[C@H](C(=O)N[C@@H](CCNC(=O)c1cc(F)cc(F)c1)C(=O)NO)C(C)CC (stereo partly drawn) [Example 4, (2S)-1-butanoyl-N-[(1S)-1-[[(1S)-3-[(3,5-difluorobenzoyl)amino]-1-(hydroxycarbamoyl)propyl]carbamoyl]-2-methyl-butyl]-N-methyl-pyrrolidine-2-carboxamide]"
0.263 µM,3.65 µM,4.1 µM,"CCCC(CCC)C(=O)N1CCC[C@H]1C(=O)N(C)[C@H](C(=O)N[C@@H](CCNC(=O)c1cc(F)cc(F)c1)C(=O)NO)C(C)CC (stereo partly drawn) [Example 8, (2S)—N-[(1S)-1-[[(1S)-3-[(3,5-difluorobenzoyl)amino]-1-(hydroxycarbamoyl)propyl]carbamoyl]-2-methyl-butyl]-N-methyl-1-(2-propylpentanoyl)pyrrolidine-2-carboxamide]"

# — patent US10414797B2, “Gelatinase inhibitors and use thereof” (Iproteos S.L, priority 2015, dated 2019)
